Test results from article PMC5622171 (Nature Communications, 2017).

Legend:
hPXR–NCoR = molecular target: T1, hPXR–NCoR (Homo sapiens, UniProt O75469); format: biochemical
T1 construct: 5 nM GST-hPXR-LBD; purchased Thermo Fisher Scientific

LS180 cells (parental) = assay: CellTiter-Glo cytotoxicity assay; conditions: 10 µM SPA70
Protocol: For the LS180, SNU-C4 and LS1034 cytotoxicity assays, cells were seeded in a 96-well plate (Corning) at 4000 cells per well. […] Cell viability was assessed using the CellTiter-Glo assay.

[1] = tested on: panel of seven other human nuclear receptors; assay: GeneBLAzer nuclear receptor panel, agonistic and antagonistic modes; format: cell-based
Protocol: For the GeneBLAzer NR-UAS-bla HEK 293 T assays for VDR, RXRα, RXRβ, FXR, GR, LXRα, LXRβ and PPARγ, GeneBLAzer panel nuclear receptor cells, the LiveBLAzer FRET-B/G Loading Kit with CCF4-AM, and all tissue culture reagents were purchased from Thermo Fisher Scientific. The assays were performed in accordance with the manufacturer’s instructions, with minor modifications as reported previously[48]–[50]. Briefly, positive control (as described for each assay), DMSO, and dilutions of test chemicals either alone (for agonistic assays) or in combination with an approximately EC80 concentration of a specific agonist (for antagonistic assays) were incubated with an optimized number of cells for each assay in wells of black 384-well tissue culture-treated clear-bottom plates with 30 µl of the respective assay medium in a 37 °C cell-culture incubator. A group of wells containing assay medium and DMSO, but no cells, served as a background control. The final DMSO concentration was 0.5% for all wells. After 24 h, 6 µl per well of loading solution was added, and this step was followed by an optimal period of incubation at room temperature in the dark before the fluorescent emission at 460 and 535 nm (using excitation at 400 nm) was measured with an EnVision plate reader. […]

C57BL/6 mice = assay: Animal acute toxicity study; conditions: oral 500 mg kg−1, days 13 and 15
Protocol: In the animal acute toxicity studies, C57BL/6 mice were randomly apportioned among six groups, with five mice per group. […] After dosing, mice were monitored daily for 15 days for morbidity and mortality. Signs of morbidity included ruffled fur, hunching, tremors, lethargy, hyperactivity and diarrhea, in addition to a reduction in weight gain. The body weight of each mouse was recorded before and after treatment. At day 15, all mice were killed and a terminal blood sample was collected for examination of clinical chemistries (e.g., renal, liver and hematopoietic function). Histopathological examination of the major organs was performed with hematoxylin and eosin staining.

T1 sequence (O75469 146-433 limits assumed): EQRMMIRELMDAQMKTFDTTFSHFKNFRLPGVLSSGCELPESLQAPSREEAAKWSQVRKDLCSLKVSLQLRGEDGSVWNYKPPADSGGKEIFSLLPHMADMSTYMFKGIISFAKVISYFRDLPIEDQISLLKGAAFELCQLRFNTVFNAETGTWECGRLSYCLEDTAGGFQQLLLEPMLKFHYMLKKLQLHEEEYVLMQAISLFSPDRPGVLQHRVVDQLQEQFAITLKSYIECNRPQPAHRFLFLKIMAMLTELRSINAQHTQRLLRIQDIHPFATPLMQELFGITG
T1 sequence (O75376 2256-2278 partner limits assumed): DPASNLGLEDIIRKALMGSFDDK

Compound: COc1ccc(OC)c(-n2nnc(S(=O)(=O)c3ccc(C(C)(C)C)cc3)c2C)c1 [SPA70]
- Effect on hPXR–NCoR interactions (hPXR–NCoR): enhanced the hPXR–NCoR interactions
- Toxicity of SPA70 alone in LS180 cells (LS180 cells (parental)): marginally toxic
- Agonistic or antagonistic activity against other human nuclear receptors [1]: no detectable agonistic or antagonistic activity
- Mouse body weight (C57BL/6 mice): increase in mouse body weight
